# Measurements taken from US20040192774A1, “Method for improving the well-being of poultry by in-ovo injection of carnitine” (priority 2001, published 2004).
# What was measured:
# [1] = system: Cobb-500 strain of broiler chicken; assay: Floor pen studies: broiler performance after day 18 in-ovo carnitine injection (or carnitine-supplemented feed); assay type: in vivo; settings: for FCR 0-49 (feed conversion ratio): 0 to 49 days post-hatch; for FCR 0-70 (feed conversion ratio): 0 to 70 days post-hatch; for FCR 49-70 (feed conversion ratio): 49 to 70 days post-hatch
# Method: (§1) Approximately 4000 embryonated, freshly laid eggs of Cobb-500 strain of broiler chicken (obtained from Cobb Vantress of Siloam Springs, Ark.) were pre-selected as to uniformity of weight and originated from breeder hens at approximately 35-45 weeks of the production cycle. The eggs were kept in a climatised incubation chamber at 37° C. up to day 18 post-laying. Eggs were then injected with either 100 μl sterile physiological saline or 150 μg carnitine comprised in 100 μl sterile physiological saline on day 18 of incubation. Incubation was then carried on until hatch. Carnitine was commercially available L-Carnitine (trade name: Carnifeed, Lonza Inc., 100% L-Carnitine). The eggs were injected with the automatic inovoject-system of Embrex, Inc. (maximum capacity: 50,000 eggs per hour). The system punches a tiny hole into the egg shell and then lowers a needle through the hole which delivers the therapeutic product to the embryo. Needles are automatically sanitized after each injection and provide for 100% inoculation.
# (§2) To assess the effect of the carnitine injection carried out according to Example 1, birds were selected at random from the birds originating from the Example 1 and raised up to 70 days. The birds were either placed in a commercial production environment (12 floor pens/trt; 50 birds/pen) or in metabolic chambers with normal feed but subnormal, controlled oxygen supply. The latter is an accepted testing model for trigger the ascites condition in predispositioned birds. Approximately 2400 chicks were allocated to floor pen groups as described below. Three hundred birds were selected at random and incubated in the metabolic chambers. Standard feeds were applied (similar to diets fed to commercial broiler chickens); and nutrient specifications are shown below. Feeds were mixed according to accepted mixing procedures such that treatment diets only differed in presence or absence of carnitine.
# Data were analyzed using the General Linear Model procedure of SAS (SAS, 1985). When a significant F statistic was noted by ANOVA, treatment means were compared using least square analysis variance.
# Data are only given where probability levels were p≦0.10. In general, carnitine effects, though not always being statistically significant at p<0.05, were consistent across trials.
# Number of days post-hatch are indicated, e.g., BW21: Hatched chicks were grown for 21 days prior to measurement.
# Mortality (M) is given as main effect mean in %. Number of days post-hatch are indicated, e.g., M21-49: percentage of death birds in the period of 21 to 49 days post-hatch.
# Main effect means for feed conversion ratio (FCR, in grams of feed per gram of gain) is given. Number of days post-hatch are indicated, e.g., FCR 0-49: FCR in the period 0 to 49 days post-hatch that chicks were grown. For further control, the effect of in-ovo injection was compared to that of feeding the same diet, except that this diet was supplemented with carnitine at 200 ppm. Feed conversion was improved by carnitine treatment, either fed or injected. The results from both methods of carnitine administration were consistent.
# [2] = system: Cobb-500 strain of broiler chicken; assay: Metabolic chamber studies: subnormal oxygen supply, ascites model; assay type: in vivo; settings: for HCT (hematocrit, packed cell volume) / AS (ascites score): day 14, 17% oxygen
# Description: In the context of the present invention, the ascites score is understood as an empirical score from 0 to 3 indicating no to severe myocardial degeneration, based on the histopathological changes. Pathological changes in cardiac traits such as right ventricle weight and ascites heart ratio, defined as the ratio of right ventricle weight to total ventricle weight, are also taken into account.
# A score of zero indicated minimal fat deposition and myofiber size variation, whereas a score of three indicated marked myocardial degeneration, highly abnormal cardiac traits and arteritis. A score of two was intermediate to the two extremes.
# as §1, §2
# Chicks were reared in air-tight chambers at subnormal oxygen supply simulating high altitude conditions. Feed and drinking water were provided for ad-libitum consumption. Chamber temperature was maintained at 30° C. the first 5 days of age and at 27.8° C. thereafter. Chambers were checked twice daily for bird mortality. Compressed dried air (7% relative humidity (rH), 17% oxygen) was delivered to chicks in the chamber via polyethylene tubes. It was necessary to provide low rH-air to the chick chamber in order to hold the chamber at rH below 75%. The concentration of oxygen and carbon dioxide in air exiting each bird's chamber was monitored every 15-25 minutes using Ametek oxygen (accuracy±0.2%) and carbon dioxide (accuracy±0.3%) analyzers, respectively.
# Apart from body weight and body temperature at hatching (day 0; BW0, BT0), ascites score (AS) and hematocrit (packed cell volume; HCT) of chicks were determined at day 14. Blood (2 ml) was taken from the birds via venipuncture after which they were euthanized using CO2 and necropsies were performed.
# Hearts were weighed whole and then dissected for determination of ascites heart ratio. Heart sections were taken and fixed in 10% buffered neutral formalin for histopathologic examinantion. The results of heart dissection and histopathological analysis were summarized in the ascites score.
# [3] = fed: diet supplemented with carnitine at 200 ppm
# [4] = injection of carnitine versus not injected
smiles,measurement,setting,value
"C[N+](C)(C)CC(O)CC(=O)[O-] (stereo not drawn) [carnitine, 3-hydroxy-4-N-trimethylaminobutyric acid]","BW 21 (body weight, main effect mean)","[1]; 150 μg carnitine in-ovo injected on day 18 of incubation, 21 days post-hatch",719.9 g
same,"BW 49 (body weight, main effect mean)","[1]; 150 μg carnitine in-ovo injected on day 18 of incubation, 49 days post-hatch",2940.7 g
same,"BW 70 (body weight, main effect mean)","[1]; 150 μg carnitine in-ovo injected on day 18 of incubation, 70 days post-hatch",4168.1 g
same,effect on feed conversion (in words),"[1]; carnitine treatment, either fed or injected",improved
same,FCR 0-49 (feed conversion ratio),[1]; [3],1.817 grams of feed per gram of gain
same,FCR 0-70 (feed conversion ratio),[1]; [3],2.331 grams of feed per gram of gain
same,FCR 49-70 (feed conversion ratio),[1]; [3],3.535 grams of feed per gram of gain
same,FCR 0-49 (feed conversion ratio),[1]; in-ovo injected day 18,1.839 grams of feed per gram of gain
same,FCR 0-70 (feed conversion ratio),[1]; in-ovo injected day 18,2.369 grams of feed per gram of gain
same,FCR 49-70 (feed conversion ratio),[1]; in-ovo injected day 18,3.648 grams of feed per gram of gain
same,"WG 0-21 (weight gain, main effect mean)","[1]; in-ovo injected day 18, period 0-21 days post-hatch",681.7 g
same,"M 0-70 (mortality, main effect mean)","[1]; in-ovo injected day 18, period 0 to 70 days post-hatch",21.92%
same,"WG 21-49 (weight gain, main effect mean)","[1]; in-ovo injected day 18, period 21-49 days post-hatch",2220.8 g
same,"M 21-49 (mortality, main effect mean)","[1]; in-ovo injected day 18, period 21 to 49 days post-hatch",4.66%
same,"WG 49-70 (weight gain, main effect mean)","[1]; in-ovo injected day 18, period 49-70 days post-hatch",1227.4 g
same,"M 49-70 (mortality, main effect mean)","[1]; in-ovo injected day 18, period 49 to 70 days post-hatch",14.33%
same,weight per 100 chicks started,"[1]; in-ovo injected eggs, end of the 70 days period post-hatch",32.54 kg
same,"mortality rate, cumulative","[1]; in-ovo injection, highest age",~20%
same,"HCT (hematocrit, packed cell volume)",[2]; fed: L-carnitine at 200 ppm (coated on silica particles) via the feed,30.25 Percent packed cells
same,AS (ascites score),"[2]; fed: L-carnitine at 200 ppm (coated on silica particles) via the feed, scale from 0-3",0.303
same,BT 0 (body temperature at hatching),"[2]; in-ovo injected day 18, day 0",101.73 ° F.
same,BW 0 (body weight at hatching),"[2]; in-ovo injected day 18, day 0",38.82 g
same,"HCT (hematocrit, packed cell volume)",[2]; in-ovo injected day 18,30.04 Percent packed cells
same,AS (ascites score),"[2]; in-ovo injected day 18, scale from 0-3 (no, slight, moderate, severe ascites lesions)",0.277
same,effect on ascites score (in words),[2]; [4],decreased
same,effect on hematocrit (in words),[2]; [4],decreased
same,increase of body weight at hatching,"[2]; single injection of carnitine into incubating eggs, versus control",0.5 g
